pIC50: −log10 of the molar value.
How the values were obtained:
[1] = Half-life in vitro in hepatic S9 fractions; format: in vitro ADME; settings: data not shown
[2] = Pharmacokinetic studies in mice after IP dosing; format: in vivo; settings: 70 mg/kg IP, male C57BL/6J mice, plasma
Protocol: Twenty-one male C57BL/6J mice were dosed IP with 70 mg/kg PS-10, 0.2 ml/mouse formulated as 10% DMSO/20% water/70% of 25% (2-hydroxypropyl)-β-cyclodextrin for determination of PS-10 PK. Twenty-one female CD-1 mice were dosed IP with 20 mg/kg PS-8, 0.2 ml/mouse formulated as 5% ethanol and 95% of 0.1 M sodium bicarbonate pH 9.0 for determination of PS-8 PK. Animal (n=3) were sacrificed and whole blood was harvested for each time point. Plasma was processed from whole blood by centrifugation of the ACD treated blood for 10′ at 10,000 rpm in a standard centrifuge. The analytical processing of blood samples and pharmacokinetics studies using LC/MS/MS were as described previously with LC/MS/MS methods optimized for detection of PS-10 and PS-8 (33).

PDP1 = biological target: T1, PDP1 (Homo sapiens, UniProt Q9P0J1); assay: PDP1 activity in vitro; format: biochemical; settings: at up to 1 mM
T1 sequence (Q9P0J1 72-537): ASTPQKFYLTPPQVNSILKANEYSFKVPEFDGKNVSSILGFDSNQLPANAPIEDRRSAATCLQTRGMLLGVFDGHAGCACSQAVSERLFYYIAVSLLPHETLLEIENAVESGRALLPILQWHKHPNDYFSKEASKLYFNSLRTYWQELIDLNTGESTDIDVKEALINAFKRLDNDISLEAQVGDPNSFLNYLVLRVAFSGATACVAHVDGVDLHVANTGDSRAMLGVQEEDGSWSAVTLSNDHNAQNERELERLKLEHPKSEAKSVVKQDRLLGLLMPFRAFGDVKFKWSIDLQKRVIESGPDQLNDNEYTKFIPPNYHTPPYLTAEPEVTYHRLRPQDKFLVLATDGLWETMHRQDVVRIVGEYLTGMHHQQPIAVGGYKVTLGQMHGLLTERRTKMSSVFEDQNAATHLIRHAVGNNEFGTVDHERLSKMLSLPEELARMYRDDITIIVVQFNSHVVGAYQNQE

[3] = test system: phosphorylated E1α subunit; assay: Western blotting of phosphorylated E1α subunit in tissues of DIO mice; format: in vivo; settings: single dose 70 mg/kg IP, 10 h
Protocol: Six- to eight-week old C57BL/6J male mice were obtained from the local campus breeding colony at UT Southwestern Medical Center (Dallas, Tex.) and randomized into two groups: vehicle- and PS10-treated. Prior to the treatment, mice were fed with a 60% high-fat diet, which contained 32% saturated and 68% unsaturated fat (catalog number: D12492, Research Diet Inc. New Brunswick, N.J.), for eight to ten weeks to produce DIO animals. PS-10 was dissolved in 100% DMSO and then diluted to make a 10% DMSO aqueous solution containing 17.5% (w/v) (2-hydroxypropyl)-β-cyclodextrin for delivery. Animals were dosed at mid-day by intraperitoneal (IP) injections at 70 mg/kg using 1-ml syringe and 30-gauge needle. The length of the treatment is indicted in each experiment. At 10 h after the last injection, animals were euthanized using carbon dioxide asphyxiation followed by cervical dislocation and dissection. Blood was harvested by cardiac puncture and stored on ice. Acidified citrate dextrose (ACD) was used as an anticoagulant. Immediately after blood collection, heart, liver, kidneys and both hind-leg quadriceps muscles were removed and snap frozen in liquid nitrogen. Average ischemia time before organ harvest was about 2 to 3 min. Blood was centrifuged in an Eppendorf 5415R refrigerated microcentrifuge at 9,300×g for 5 min to isolate plasma, which was subsequently stored at −80° C. […]

DIO mice [4] = assay: Histochemistry of the liver (Oil Red O) of DIO mice; format: in vivo; settings: 70 mg/kg/day
Protocol: Histological examination of the liver was performed in the institutional Immunohistochemistry Laboratory. Liver tissue was dissected, grossly trim then fixed by immersion for 48 hrs in 4% Formalin/PBS (4% […], 137 mM NaCl, 2.7 mM KCl and 10 mM phosphate buffer, pH 7.5) at 4° C. Liver samples were then transferred to 10% (w/v) sucrose in PBS and incubate at 4° C. for 24 hrs. Tissues were incubated in 18% sucrose in PBS at 4° C. for 24 hours. Finally, samples were transferred to a fresh 18% sucrose solution and embedded in OCT (Optimal cutting temperature compound), cryo-sectioned and stained with Oil Red O.

HeLa cells = settings: read-out: IC50 for the growth inhibition of HeLa cells
[5] = Food intake, body weight and fat mass of DIO mice; format: in vivo; settings: 70 mg/kg/day
Protocol: (§1) Six- to eight-week old C57BL/6J male mice were obtained from the local campus breeding colony at UT Southwestern Medical Center (Dallas, Tex.) and randomized into two groups: vehicle- and PS10-treated. Prior to the treatment, mice were fed with a 60% high-fat diet, which contained 32% saturated and 68% unsaturated fat (catalog number: D12492, Research Diet Inc. New Brunswick, N.J.), for eight to ten weeks to produce DIO animals. PS-10 was dissolved in 100% DMSO and then diluted to make a 10% DMSO aqueous solution containing 17.5% (w/v) (2-hydroxypropyl)-β-cyclodextrin for delivery. Animals were dosed at mid-day by intraperitoneal (IP) injections at 70 mg/kg using 1-ml syringe and 30-gauge needle. The length of the treatment is indicted in each experiment. At 10 h after the last injection, animals were euthanized using carbon dioxide asphyxiation followed by cervical dislocation and dissection. Blood was harvested by cardiac puncture and stored on ice. Acidified citrate dextrose (ACD) was used as an anticoagulant. Immediately after blood collection, heart, liver, kidneys and both hind-leg quadriceps muscles were removed and snap frozen in liquid nitrogen. Average ischemia time before organ harvest was about 2 to 3 min. Blood was centrifuged in an Eppendorf 5415R refrigerated microcentrifuge at 9,300×g for 5 min to isolate plasma, which was subsequently stored at −80° C.

DIO mice [6] = assay: Blood biochemistry of DIO mice (lactate, cholesterol, triglycerides); format: in vivo; settings: 70 mg/kg/day
Protocol: as §1
Glucose levels were determined with Sigma Diagnostics Glucose (Sigma Aldrich, St. Louis, Mo.). The levels of lactate, cholesterol, and triglyceride were measured by Vitros 250 blood chemistry analyzer (Johnson & Johnson Inc.) in the Metabolic Phenotyping Core in UT Southwestern Medical Center.

DIO mice [7] = assay: Glucose tolerance test in DIO mice; format: in vivo; settings: 70 mg/kg/day IP for 4 weeks, 1.5 g/kg glucose challenge
Protocol: as §1
Mice were fasted for 6 hours after compound treatment. Ten hours after compound administration, 1.5 g/kg of glucose was delivered intraperitoneally to mice. Tail vein serum samples were collected immediately before and 15, 30, 60 and 120 minutes after the glucose challenge. The glucose levels in serum samples were determined by a glucose meter.

mature SREBP-1c = assay: Hepatic nuclear mature SREBP-1c protein level in PDK inhibitor-treated DIO mice; format: in vivo; settings: 40 mg/kg/day by mini-pumps for 5 days

## O=S(=O)(c1ccc(O)cc1O)N1Cc2cc(O)cc(O)c2C1 [PS10, 2-((2,4-dihydroxyphenyl)sulfonyl)isoindoline-4,6-diol]
[1]
  half-life: > 4 h
[2]
  CL/F: 0.741 mL/min
[2]; mouse
  AUC(0-t): 31800 ng·h/mL
  Cmax: 32400 ng/mL
  Tmax: 0.167 h
[2]; mouse, read-out: Terminal T1/2
  half-life: 2.68 h
[2]; mouse, read-out: Vz/F
  Vd/F: 0.172 L
PDP1
  effect on PDP1 activity in vitro: without effect
[3]
  amounts of the phosphorylated E1α subunit in heart and liver vs vehicle-treated: significantly decreased
DIO mice [4]
  fat in the liver, Oil Red O stain: larger amounts of fat were present in the liver of the vehicle-treated DIO mice compared with PS10-treated
HeLa cells
  pIC50: 3.55
[5]
  body weight vs vehicle-treated: no significant differences
  fat-mass vs vehicle-treated: reduction
  food intake vs vehicle-treated: no significant differences
DIO mice [6]
  plasma cholesterol vs vehicle-treated: significantly lower
  plasma lactate vs vehicle-treated: significantly lower
  plasma triglycerides vs vehicle-treated: significantly lower
DIO mice [7]
  plasma glucose level at 0 min: 168 mg/dL
  plasma glucose level at 30 min: 312 mg/dL
  plasma glucose level at 120 min: 163 mg/dL
Mature SREBP-1c
  protein level of nuclear mature SREBP-1c: unchanged

From patent US10167258B2, “Inhibitors of mitochondrial pyruvate dehydrogenase kinase isoforms 1-4 and uses thereof” (The Board of Regents of the University of Texas System, priority 2013, dated 2019)
